Paper PMC10174618, “Monoterpenoid aryl hydrocarbon receptor allosteric antagonists protect against ultraviolet skin damage in female mice” (Nature Communications, 2023)

How the values were obtained:
Experiment in all cases: biochemical
Set-up in all cases: KINOMEscan scanMAX active site-directed competition binding assay, percent of control, 468 kinases
Details in all cases: competition binding, percent of control
AKT3 = AKT3 (Homo sapiens, UniProt Q9Y243)
Method in brief: (§1)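 Single-concentration screen (100 μM S-carvone) in a competition binding panel of 468 human kinases (KINOMEscan scanMAX); results given as percent of control, hit cutoff 35%.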

AMPK-alpha1 = molecular target: T1, AMPK-alpha1 (Homo sapiens, UniProt Q13131)
T1 construct: gene PRKAA1
Method in brief: as §1

CAMK2B = CAMK2B (Homo sapiens, UniProt Q13554)
Method in brief: as §1

CDK9 = CDK9 (Homo sapiens, UniProt P50750)
Method in brief: as §1

CSNK2A2 = CSNK2A2 (Homo sapiens, UniProt P19784)
Method in brief: as §1

DDR2 = DDR2 (Homo sapiens, UniProt Q16832)
Method in brief: as §1

EGFR(E746-A750del) = EGFR(E746-A750del) (Homo sapiens, UniProt P00533, DEL746-750)
Method in brief: as §1

FLT1 = FLT1 (Homo sapiens, UniProt P17948)
Method in brief: as §1

FLT3 = FLT3 (Homo sapiens, UniProt P36888)
Method in brief: as §1

GAK = GAK (Homo sapiens, UniProt O14976)
Method in brief: as §1

GRK7 = GRK7 (Homo sapiens, UniProt Q8WTQ7)
Method in brief: as §1

HUNK = HUNK (Homo sapiens, UniProt P57058)
Method in brief: as §1

IKK-beta = molecular target: T2, IKK-beta (Homo sapiens, UniProt O14920)
T2 construct: gene IKBKB
Method in brief: as §1

INSR = INSR (Homo sapiens, UniProt P06213)
Method in brief: as §1

IRAK1 = IRAK1 (Homo sapiens, UniProt P51617)
Method in brief: as §1

MAP4K4 = MAP4K4 (Homo sapiens, UniProt O95819)
Method in brief: as §1

MARK1 = MARK1 (Homo sapiens, UniProt Q9P0L2)
Method in brief: as §1

PIK3C2G = PIK3C2G (Homo sapiens, UniProt O75747)
Method in brief: as §1

PRKCQ = PRKCQ (Homo sapiens, UniProt Q04759)
Method in brief: as §1

PRP4 = molecular target: T3, PRP4 (Homo sapiens, UniProt Q13523)
T3 construct: gene PRPF4B
Method in brief: as §1

TRKA = molecular target: T4, TRKA (Homo sapiens, UniProt P04629)
T4 construct: gene NTRK1
Method in brief: as §1

p38-delta = molecular target: T5, p38-delta (Homo sapiens, UniProt O15264)
T5 construct: gene MAPK13
Method in brief: as §1

Chain of DDR2 (Q16832 whole entry): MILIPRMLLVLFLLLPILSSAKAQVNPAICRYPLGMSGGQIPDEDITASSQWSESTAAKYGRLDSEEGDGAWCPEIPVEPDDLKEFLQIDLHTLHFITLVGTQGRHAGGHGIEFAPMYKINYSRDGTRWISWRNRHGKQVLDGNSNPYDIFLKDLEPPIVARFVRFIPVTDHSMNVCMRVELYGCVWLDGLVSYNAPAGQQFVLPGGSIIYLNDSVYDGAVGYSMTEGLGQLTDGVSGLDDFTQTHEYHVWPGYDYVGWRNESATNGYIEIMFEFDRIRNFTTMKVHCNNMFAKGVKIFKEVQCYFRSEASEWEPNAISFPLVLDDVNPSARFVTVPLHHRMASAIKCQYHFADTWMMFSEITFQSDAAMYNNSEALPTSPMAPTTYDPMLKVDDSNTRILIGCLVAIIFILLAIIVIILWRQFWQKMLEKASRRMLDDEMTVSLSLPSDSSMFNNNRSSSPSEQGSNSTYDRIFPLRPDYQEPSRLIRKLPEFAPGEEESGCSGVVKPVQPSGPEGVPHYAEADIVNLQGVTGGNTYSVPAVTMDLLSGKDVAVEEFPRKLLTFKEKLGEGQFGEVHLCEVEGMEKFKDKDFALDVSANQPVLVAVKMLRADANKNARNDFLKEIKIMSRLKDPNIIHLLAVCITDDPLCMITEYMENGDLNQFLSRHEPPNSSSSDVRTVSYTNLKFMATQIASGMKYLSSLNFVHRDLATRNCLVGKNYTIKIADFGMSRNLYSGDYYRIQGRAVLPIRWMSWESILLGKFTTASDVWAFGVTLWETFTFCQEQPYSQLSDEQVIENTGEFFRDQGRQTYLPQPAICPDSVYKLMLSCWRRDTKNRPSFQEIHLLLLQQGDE
Chain of MARK1 (Q9P0L2 whole entry): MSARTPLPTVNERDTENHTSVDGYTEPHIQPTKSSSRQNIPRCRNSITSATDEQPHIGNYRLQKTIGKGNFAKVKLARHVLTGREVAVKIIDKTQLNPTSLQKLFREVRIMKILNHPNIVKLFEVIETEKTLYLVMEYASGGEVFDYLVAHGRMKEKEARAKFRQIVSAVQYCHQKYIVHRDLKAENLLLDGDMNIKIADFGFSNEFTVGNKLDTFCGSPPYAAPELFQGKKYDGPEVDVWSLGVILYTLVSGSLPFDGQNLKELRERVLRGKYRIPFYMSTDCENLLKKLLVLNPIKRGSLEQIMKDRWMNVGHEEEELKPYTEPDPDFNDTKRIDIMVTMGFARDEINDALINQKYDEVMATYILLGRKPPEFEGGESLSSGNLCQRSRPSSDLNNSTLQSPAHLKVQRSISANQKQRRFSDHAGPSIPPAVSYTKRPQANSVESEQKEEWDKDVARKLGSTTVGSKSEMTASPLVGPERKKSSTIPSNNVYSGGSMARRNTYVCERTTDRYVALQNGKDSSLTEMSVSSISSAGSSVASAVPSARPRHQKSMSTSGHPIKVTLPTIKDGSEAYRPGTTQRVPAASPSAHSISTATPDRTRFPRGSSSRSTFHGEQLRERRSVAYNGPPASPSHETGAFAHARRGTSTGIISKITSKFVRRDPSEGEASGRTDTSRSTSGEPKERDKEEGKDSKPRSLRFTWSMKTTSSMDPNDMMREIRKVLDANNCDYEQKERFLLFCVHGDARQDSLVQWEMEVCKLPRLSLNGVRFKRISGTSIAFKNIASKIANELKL
Chain of IRAK1 (P51617 whole entry): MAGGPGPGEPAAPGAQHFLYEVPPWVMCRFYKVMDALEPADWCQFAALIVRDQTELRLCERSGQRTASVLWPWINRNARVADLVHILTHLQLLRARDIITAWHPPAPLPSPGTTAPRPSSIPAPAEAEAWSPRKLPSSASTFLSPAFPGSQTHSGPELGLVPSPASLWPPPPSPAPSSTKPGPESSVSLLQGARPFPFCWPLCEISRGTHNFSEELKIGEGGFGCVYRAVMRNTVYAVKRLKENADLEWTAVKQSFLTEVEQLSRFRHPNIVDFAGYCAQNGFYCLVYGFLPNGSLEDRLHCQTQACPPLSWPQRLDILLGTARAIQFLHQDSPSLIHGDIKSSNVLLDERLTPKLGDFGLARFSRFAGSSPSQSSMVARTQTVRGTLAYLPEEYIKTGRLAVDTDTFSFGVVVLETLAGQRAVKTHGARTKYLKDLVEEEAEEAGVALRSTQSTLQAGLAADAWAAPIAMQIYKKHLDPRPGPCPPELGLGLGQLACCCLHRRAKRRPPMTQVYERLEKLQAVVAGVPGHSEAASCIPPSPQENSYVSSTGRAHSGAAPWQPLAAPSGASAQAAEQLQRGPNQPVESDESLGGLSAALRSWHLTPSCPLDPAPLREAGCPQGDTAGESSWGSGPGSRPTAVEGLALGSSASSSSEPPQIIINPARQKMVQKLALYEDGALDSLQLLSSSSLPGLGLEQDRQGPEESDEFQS
T4 sequence (P04629 whole entry): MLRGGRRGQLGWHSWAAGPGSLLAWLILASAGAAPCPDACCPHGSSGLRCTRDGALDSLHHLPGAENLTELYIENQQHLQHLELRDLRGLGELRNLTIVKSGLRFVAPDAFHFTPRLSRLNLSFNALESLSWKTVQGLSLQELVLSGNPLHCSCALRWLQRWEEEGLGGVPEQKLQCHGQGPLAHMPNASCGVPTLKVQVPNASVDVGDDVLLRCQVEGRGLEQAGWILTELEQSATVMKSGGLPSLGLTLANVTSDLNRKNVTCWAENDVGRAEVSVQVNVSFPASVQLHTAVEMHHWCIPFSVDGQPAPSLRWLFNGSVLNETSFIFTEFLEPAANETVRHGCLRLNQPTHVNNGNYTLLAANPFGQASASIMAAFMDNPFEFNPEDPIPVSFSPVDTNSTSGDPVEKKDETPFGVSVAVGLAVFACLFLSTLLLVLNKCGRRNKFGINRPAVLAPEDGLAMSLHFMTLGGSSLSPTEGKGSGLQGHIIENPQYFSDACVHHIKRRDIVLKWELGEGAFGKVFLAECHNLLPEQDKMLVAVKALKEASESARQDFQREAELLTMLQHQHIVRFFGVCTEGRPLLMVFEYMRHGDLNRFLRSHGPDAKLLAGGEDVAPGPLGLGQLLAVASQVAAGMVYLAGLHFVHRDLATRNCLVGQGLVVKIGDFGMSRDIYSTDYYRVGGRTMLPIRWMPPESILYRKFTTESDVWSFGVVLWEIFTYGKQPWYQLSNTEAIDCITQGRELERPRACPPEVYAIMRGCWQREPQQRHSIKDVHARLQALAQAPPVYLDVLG
T5 sequence (O15264 whole entry): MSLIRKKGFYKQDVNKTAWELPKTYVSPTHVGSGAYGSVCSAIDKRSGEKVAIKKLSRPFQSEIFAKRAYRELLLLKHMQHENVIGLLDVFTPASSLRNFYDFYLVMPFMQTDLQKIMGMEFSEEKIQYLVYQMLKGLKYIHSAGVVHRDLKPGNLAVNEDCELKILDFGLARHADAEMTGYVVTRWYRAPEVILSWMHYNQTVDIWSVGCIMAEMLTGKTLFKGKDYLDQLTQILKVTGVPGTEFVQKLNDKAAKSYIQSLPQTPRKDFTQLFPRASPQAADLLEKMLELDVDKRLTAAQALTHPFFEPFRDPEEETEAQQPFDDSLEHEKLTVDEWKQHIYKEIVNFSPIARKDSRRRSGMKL
Chain of MAP4K4 (O95819 whole entry): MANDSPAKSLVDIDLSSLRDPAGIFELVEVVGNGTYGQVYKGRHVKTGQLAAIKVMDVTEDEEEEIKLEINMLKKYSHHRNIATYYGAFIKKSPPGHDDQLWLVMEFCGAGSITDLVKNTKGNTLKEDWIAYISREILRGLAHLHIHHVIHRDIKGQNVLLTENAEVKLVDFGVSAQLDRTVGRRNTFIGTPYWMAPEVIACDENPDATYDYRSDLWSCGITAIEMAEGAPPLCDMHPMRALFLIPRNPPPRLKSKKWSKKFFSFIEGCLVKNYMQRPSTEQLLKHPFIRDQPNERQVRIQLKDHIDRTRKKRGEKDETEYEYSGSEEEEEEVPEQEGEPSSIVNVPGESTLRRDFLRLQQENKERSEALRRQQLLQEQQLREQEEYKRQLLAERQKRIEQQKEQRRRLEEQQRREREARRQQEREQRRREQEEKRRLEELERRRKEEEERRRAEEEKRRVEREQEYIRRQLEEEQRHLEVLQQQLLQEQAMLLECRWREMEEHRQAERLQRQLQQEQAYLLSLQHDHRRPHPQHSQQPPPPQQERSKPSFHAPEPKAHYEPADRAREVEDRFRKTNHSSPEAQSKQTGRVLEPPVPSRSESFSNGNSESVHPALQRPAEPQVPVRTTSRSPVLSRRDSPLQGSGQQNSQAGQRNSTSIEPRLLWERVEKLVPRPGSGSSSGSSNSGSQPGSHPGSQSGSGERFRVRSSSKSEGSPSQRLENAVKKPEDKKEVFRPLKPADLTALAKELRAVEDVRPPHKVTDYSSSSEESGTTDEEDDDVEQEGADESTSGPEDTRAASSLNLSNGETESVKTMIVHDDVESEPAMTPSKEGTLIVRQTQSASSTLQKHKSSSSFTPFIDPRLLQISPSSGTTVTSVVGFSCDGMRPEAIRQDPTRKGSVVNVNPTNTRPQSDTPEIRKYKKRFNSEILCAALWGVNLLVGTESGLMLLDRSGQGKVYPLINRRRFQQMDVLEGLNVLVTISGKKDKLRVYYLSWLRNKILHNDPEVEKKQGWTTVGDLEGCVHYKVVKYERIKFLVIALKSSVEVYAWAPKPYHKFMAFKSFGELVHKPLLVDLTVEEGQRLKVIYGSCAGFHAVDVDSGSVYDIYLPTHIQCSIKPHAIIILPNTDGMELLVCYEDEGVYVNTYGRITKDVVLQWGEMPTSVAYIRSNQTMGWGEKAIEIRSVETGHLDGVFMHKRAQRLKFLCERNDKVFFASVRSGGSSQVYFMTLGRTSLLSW

C=C(C)[C@H]1CC=C(C)C(=O)C1 [S-carvone]
remaining binding at 100 µM (AKT3): 90% | remaining binding at 100 µM (AMPK-alpha1): 89% | remaining binding at 100 µM (CAMK2B): 86% | remaining binding at 100 µM (CDK9): 85% | remaining binding at 100 µM (CSNK2A2): 87% | remaining binding at 100 µM (DDR2): 88% | remaining binding at 100 µM (EGFR(E746-A750del)): 62% | remaining binding at 100 µM (FLT1): 91% | remaining binding at 100 µM (FLT3): 71% | remaining binding at 100 µM (GAK): 83% | remaining binding at 100 µM (GRK7): 75% | remaining binding at 100 µM (HUNK): 63% | remaining binding at 100 µM (IKK-beta): 72% | remaining binding at 100 µM (INSR): 68% | remaining binding at 100 µM (IRAK1): 65% | remaining binding at 100 µM (MAP4K4): 85% | remaining binding at 100 µM (MARK1): 85% | remaining binding at 100 µM (PIK3C2G): 62% | remaining binding at 100 µM (PRKCQ): 75% | remaining binding at 100 µM (PRP4): 62% | remaining binding at 100 µM (TRKA): 82% | remaining binding at 100 µM (p38-delta): 57%
